Measurements reported in PubChem BioAssay (NCI).
Where “and” joins values, the source holds several entries; their conditions need not be identical. Equal entries are not always repeated.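 Compound exposure: 48 hours, 5 concentrations, 96-well plates. Abbreviation: GI50, concentration required for 50% inhibition of growth. TGI denotes the concentration required for complete inhibition of growth.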

Key:
Experiment in all cases: NCI tumour cell line growth inhibition, 48 h
HCC-2998 colon = tested on: HCC-2998 colon
HOP-62 NSCLC = tested on: HOP-62 NSCLC
MALME-3M melanoma = tested on: MALME-3M melanoma
NCI-H23 lung = tested on: NCI-H23 lung
RPMI-8226 leukemia = tested on: RPMI-8226 leukemia
SK-MEL-28 melanoma = tested on: SK-MEL-28 melanoma
SNB-19 CNS = tested on: SNB-19 CNS
SNB-75 CNS = tested on: SNB-75 CNS
UACC-62 melanoma = tested on: UACC-62 melanoma
UO-31 renal = tested on: UO-31 renal

Row | Compound | GI50 (HCC-2998 colon) [µM] | TGI (HCC-2998 colon) | GI50 (HOP-62 NSCLC) | TGI (HOP-62 NSCLC) | GI50 (MALME-3M melanoma) | TGI (MALME-3M melanoma) [µM] | GI50 (NCI-H23 lung) | TGI (NCI-H23 lung) | GI50 (RPMI-8226 leukemia) | TGI (RPMI-8226 leukemia) | GI50 (SK-MEL-28 melanoma) | TGI (SK-MEL-28 melanoma) [µM] | GI50 (SNB-19 CNS) | TGI (SNB-19 CNS) [µM] | GI50 (SNB-75 CNS) | TGI (SNB-75 CNS) | GI50 (UACC-62 melanoma) | TGI (UACC-62 melanoma) | GI50 (UO-31 renal) | TGI (UO-31 renal) [µM]
1 | CCCCc1cc(O)ccc1O | 70.8 | > 100 µM | 53.7 µM | > 100 µM | 21.6 µM | 65.4 | 67.1 µM | > 100 µM | 3.13 µM | 26.6 µM | 78.7 µM | > 100 | 78.5 µM | > 100 | 14.1 µM | > 100 µM | 27.7 µM | > 100 µM | 10.8 µM | 28.1
2 | CCc1ccc(C2=C(O)C(=O)C(c3ccc(CC)cc3)=C(O)C2=O)cc1 | 2.09 | 5.75 µM | 1.5 µM | 3.42 µM | 1.28 µM | 5.4 | 1.96 µM | 5.23 µM | 1.81 µM | 6.43 µM | 2.65 µM | 8.89 | 2.17 µM | 8.03 | 1.37 µM | 4.19 µM | 1.64 µM | 3.63 µM | 1.73 µM | 4.91
3 | Cn1cnc([N+](=O)[O-])c1Sc1ncnc2nc[nH]c12 | 5.64 | > 100 µM | 0.882 µM and 5.79 µM | > 100 µM | 4.22 µM and 34.9 µM | > 100 | 4.01 µM and 13.3 µM | > 100 µM | 3.18 µM and 1.55 µM | > 100 µM | 37.8 µM and 40.2 µM | > 100 | 61.4 µM and 84.4 µM | > 100 | 0.461 µM and 3.03 µM | 17.1 µM and > 100 µM | 2.54 µM and 3.4 µM | > 100 µM | 2.39 µM and 14.8 µM | > 100
4 | CCN(CC)CC(C)Nc1ccc(C)c2sc3ccccc3c(=O)c12 (stereo unspecified) | 3.19 | 15 µM | 2.63 µM | 8.67 µM | 2.45 µM | 8.29 | 5.94 µM | 19.8 µM | 2.32 µM | 6.81 µM | 1.73 µM | 3.41 | 6.44 µM | 19.5 | 2.2 µM | 10.8 µM | 1.82 µM | 3.98 µM | 1.77 µM | 7.69
5 | Cc1ccc(S(=O)(=O)ON/N=C2/C3OC3[C@@H]3CCCC[C@H]23)cc1 (stereo partly specified) | – | > 100 µM | – | > 100 µM | – | > 100 | – | > 100 µM | – | > 100 µM | – | > 100 | – | > 100 | – | > 100 µM | – | > 100 µM | – | > 100
6 | CC[C@@]1(OC(=O)CCC(=O)O)C(=O)OCc2c1cc1n(c2=O)Cc2cc3ccccc3nc2-1 | – | 4.29 µM | – | 0.181 µM | – | 6.78 | – | 0.838 µM | – | 3.87 µM | – | > 46.1 | – | > 43 | – | 2.54 µM | – | 0.255 µM | – | 0.493
7 | CC1=C(N2CC2)C(=O)c2nc3n(c2C1=O)CCC3O (stereo unspecified) | – | 0.328 µM | – | 0.516 µM | – | 0.33 | – | 0.262 µM | – | 10.2 µM | – | 0.872 | – | 0.97 | – | 1.23 µM | – | 0.482 µM | – | 4.18
8 | COC1C(=O)CCC2(CO2)C1(O)C1(C)OC1CCC(C)C (stereo unspecified) | – | > 100 µM | – | > 100 µM | – | > 100 | – | > 100 µM | – | > 100 µM | – | > 100 | – | > 100 | – | > 100 µM | – | > 100 µM | – | > 100
9 | Cn1nnnc1[N-]Cc1ccccc1.[Au+].c1ccc([PH+](c2ccccc2)c2ccccc2)cc1 | 8.55 | 21.8 µM | 16 µM | 30 µM | 1.64 µM | 3.39 | 3.35 µM | 10.4 µM | 1.23 µM | 4.37 µM | 2.53 µM | 7.23 | 3.61 µM | 13.1 | 7.92 µM | 20.5 µM | 1.72 µM | 7.12 µM | 13 µM | 25.7
10 | CCOC(=O)/C=C/c1ccc(C(=O)OCC)[nH]1 | 12.3 | 77.3 µM | 7.14 µM | > 100 µM | 2.89 µM | > 100 | 7.16 µM | > 100 µM | 5.32 µM | > 100 µM | 33.7 µM | > 100 | 24.7 µM | > 100 | 2.82 µM | 35.9 µM | 5.23 µM | > 100 µM | 4 µM | > 100
11 | CCc1cccc(C)c1NC(=O)CC1Sc2ccccc2NC1=O (stereo unspecified) | – | 81.2 µM | – | 61.3 µM | – | > 100 | – | > 100 µM | – | > 100 µM | – | > 100 | – | > 100 | – | 75 µM | – | > 100 µM | – | > 100
12 | CCCN(CCC)c1c([N+](=O)[O-])cc(S(N)(=O)=O)cc1[N+](=O)[O-] | – | 33.2 µM | – | 32 µM | – | 33 | – | 32.3 µM | – | 76.4 µM | – | 36.3 | – | 41.3 | – | 32.4 µM | – | 32.8 µM | – | 34.8
13 | CC(O)C(NC(=O)C(CS)NC(=O)C(CO)NC(=O)C(CCCCN)NC(=O)C(Cc1c[nH]c2ccccc12)NC(=O)C(Cc1ccc(O)cc1)NC(=O)C(CS)NC(=O)C(N)Cc1ccccc1)C(N)=O (stereo unspecified) | – | > 25 µM and 57.7 µM | – | > 25 µM and 63.4 µM | – | > 25 | – | > 25 µM and 68 µM | 22.3 µM | > 25 µM and 47.8 µM | – | 76.9 | – | 63.4 | – | 62.5 µM | – | > 25 µM and 57.8 µM | – | > 25
14 | Nc1ccc2c(c1)[O][Sn]([c]1ccccc1)([c]1ccccc1)[O]C2=O | 17.8 | 33.2 µM | 19.6 µM | 34.9 µM | 3.18 µM | 8.22 | 2.76 µM | 8.58 µM | 2.5 µM | 10.7 µM | 5.02 µM | 12.4 | 17.3 µM | 31.3 | 7.64 µM | 18.9 µM | 5.94 µM | 16.3 µM | 12.5 µM | 26
15 | CC1=C2N3C[C@@H](n4c(=O)n(C)c(=O)n43)C23CCC1n1c(=O)n(C)c(=O)n13 | – | > 100 µM | – | > 100 µM | – | > 100 | – | > 100 µM | – | > 100 µM | – | > 100 | – | > 100 | – | > 100 µM | – | > 100 µM | – | > 100
16 | c1cc(-c2sc(-c3ccncc3)c(-c3ccncc3)c2-c2ccncc2)ccn1 | – | 19.6 µM | – | 78.1 µM | – | 32.5 | – | 31.9 µM | – | > 100 µM | – | 46.1 | – | 55.9 | – | 40.9 µM | – | 27.8 µM | – | 30
